Values after ≈ are worked out from the molar mass of the structure shown. Where two headings read alike, the source gives them in different places.
What was measured:
[1] = test system: C. freundii 902; assay: Minimum inhibitory concentration in vitro, agar dilution method; type: cell-based; conditions: Citrobacter freundii
Excerpt: (§1) 1. Minimum Inhibitory Concentration in vitro
(§2) The activities ascertained, minimum inhibitory concentration (MIC) in μg/ml, are compiled in Table 1 hereinafter: […]

[2] = test system: E. coli 25922; assay: as above; type: cell-based; conditions: Escherichia coli
Excerpt: as §1, §2

[3] = test system: S. aureus 6538; assay: as above; type: cell-based; conditions: Staphylococcus aureus
Excerpt: as §1, §2

[4] = test system: P. aeruginosa 799/61; assay: as above; type: cell-based; conditions: Pseudomonas aeruginosa
Excerpt: as §1, §2

[5] = test system: S. marcescens 69438; assay: as above; type: cell-based; conditions: Serratia marcescens
Excerpt: as §1, §2

[6] = test system: P. vulgaris 1028; assay: as above; type: cell-based; conditions: Proteus vulgaris
Excerpt: as §1, §2

[7] = test system: E. aerogenes CF153; assay: as above; type: cell-based; conditions: Klebsiella aerogenes
Excerpt: as §1, §2

[8] = test system: E. cloacae 908SSi; assay: as above; type: cell-based; conditions: Enterobacter cloacae
Excerpt: as §1, §2

[9] = test system: E. cloacae 908R; assay: as above; type: cell-based; conditions: Enterobacter cloacae
Excerpt: as §1, §2

[10] = test system: P. aeruginosa 799/WT; assay: as above; type: cell-based; conditions: Pseudomonas aeruginosa
Excerpt: as §1, §2

[11] = test system: E. cloacae P99; assay: as above; type: cell-based; conditions: Enterobacter cloacae
Excerpt: as §1, §2

[12] = test system: P. aeruginosa MK1184; assay: as above; type: cell-based; conditions: Pseudomonas aeruginosa
Excerpt: as §1, §2

[13] = test system: P. aeruginosa 27853; assay: as above; type: cell-based; conditions: Pseudomonas aeruginosa
Excerpt: as §1, §2

[14] = test system: K. oxytoca 1082; assay: as above; type: cell-based; conditions: Klebsiella oxytoca
Excerpt: as §1, §2

[15] = test system: K. pneumoniae 418; assay: as above; type: cell-based; conditions: Klebsiella pneumoniae
Excerpt: as §1, §2

[16] = test system: P. mirabilis 2117; assay: as above; type: cell-based; conditions: Proteus mirabilis
Excerpt: as §1, §2

[17] = test system: S. pyogenes 15; assay: as above; type: cell-based; conditions: Streptococcus pyogenes
Excerpt: as §1, §2

[18] = test system: P. aeruginosa BA; assay: as above; type: cell-based; conditions: Pseudomonas aeruginosa
Excerpt: as §1, §2

[19] = test system: E. coli 25922; assay: Experimental systemic septicaemia in the mouse; type: in vivo; conditions: 96 h
Experimental: (§3) 2. Experimental systemic septicaemia in the mouse
(§4) An experimental systemic septicaemia was produced in albino mice weighing 16-20 g by intraperitoneally injecting into the experimental animals a sample of a dilute culture of the test organism which had been grown overnight. The sample administered is calculated such that the dosage administered is about 5-100 times greater than the dosage which is required to kill 50% of untreated experimental animals within 48 hours. The bacteria were injected as a suspension in the culture broth. Groups of 5 experimental animals each were used not only for the control, but also for the treatment for each dosage tested. The products in accordance with the invention were administered subcutaneously as a suspension in Tween 80 (2%), whereby the concentrations were chosen such that each experimental animal received 500 μl per administration. The respective concentrations were administered twice, namely 1 and 3 hours after the infection (in the case of P. aeruginosa three times, namely 1, 3 and 5 hours after the infection). The ED50 is that dosage which protects 50% of the experimental animals and was calculated by means of the Probit method on the basis of the survial rate after 4 days following the infection. The ED50 values in mg/kg s.c. (subcutaneous) for representatives of the class of substance in accordance with the invention are given in Table 2 hereinafter.

[20] = test system: Pseudomonas aeruginosa BA; assay: Experimental systemic septicaemia in the mouse; type: in vivo; conditions: sc, 96 h
Experimental: as §3, §4

[21] = C. freundii 902, agar dilution, read-out: MIC
[22] = E. coli 25922, agar dilution, read-out: MIC
[23] = S. aureus 6538, agar dilution, read-out: MIC
[24] = P. aeruginosa 799/61, agar dilution, read-out: MIC
[25] = S. marcescens 69438, agar dilution, read-out: MIC
[26] = P. vulgaris 1028, agar dilution, read-out: MIC
[27] = E. aerogenes CF153, agar dilution, read-out: MIC
[28] = E. cloacae 908SSi, agar dilution, read-out: MIC
[29] = E. cloacae 908R, agar dilution, read-out: MIC
[30] = P. aeruginosa 799/WT, agar dilution, read-out: MIC
[31] = P. aeruginosa MK1184, agar dilution, read-out: MIC
[32] = P. aeruginosa 27853, agar dilution, read-out: MIC
[33] = K. oxytoca 1082, agar dilution, read-out: MIC
[34] = K. pneumoniae 418, agar dilution, read-out: MIC
[35] = P. mirabilis 2117, agar dilution, read-out: MIC
[36] = S. pyogenes 15, agar dilution, read-out: MIC
[37] = P. aeruginosa BA, agar dilution, read-out: MIC
[38] = Escherichia coli, sc, E. coli 25922, albino mice, s.c. 1 and 3 hours after infection, survival after 4 days, read-out: ED50

Compound | MIC [1, 21] [µg/mL] | MIC [2, 22] [µg/mL] | MIC [3, 23] [µg/mL] | MIC [4, 24] [µg/mL] | MIC [5, 25] [µg/mL] | MIC [6, 26] [µg/mL] | MIC [7, 27] [µg/mL] | MIC [8, 28] [µg/mL] | MIC [9, 29] [µg/mL] | MIC [10, 30] [µg/mL] | MIC [11] [µg/mL] | MIC [12, 31] [µg/mL] | MIC [13, 32] [µg/mL] | MIC [14, 33] [µg/mL] | MIC [15, 34] [µg/mL] | MIC [16, 35] [µg/mL] | MIC [17, 36] [µg/mL] | MIC [18, 37] [µg/mL] | ED50 [19, 38] [mg/kg] | also measured
Nc1nc(/C(=N/OCc2nc(=O)c(O)c[nH]2)C(=O)N[C@@H]2C(=O)N3C(C(=O)O)=C(CSc4nc(-c5ccccc5)ncc4-c4ccc(O)c(O)c4)CS[C@H]23)cs1 [Example 16, (6R,7R)-7-[(Z)-2-(2-amino-4-thiazolyl)-2-[[(1,4-dihydro-5-hydroxy-4-oxo-2-pyrimidinyl)methoxy]imino]acetamido]-3-[[[5-(3,4-dihydroxyphenyl)-2-phenyl-4-pyrimidinyl]thio]methyl]-8-oxo-5-thia-1-azabicyclo[4.2.0]oct-2-ene-2-carboxylic acid] | 0.12 (≈ 0.15 µM) | < 0.1 | 32 (≈ 39.9 µM) | < 0.1 | 1 (≈ 1.25 µM) | 0.25 (≈ 0.312 µM) | 0.12 (≈ 0.15 µM) | 8 (≈ 9.98 µM) | 0.25 (≈ 0.312 µM) | 0.5 (≈ 0.624 µM) | 8 (≈ 9.98 µM) | > 32 | 1 (≈ 1.25 µM) | 0.25 (≈ 0.312 µM) | < 0.1 | 0.25 (≈ 0.312 µM) | 0.25 (≈ 0.312 µM) | 4 (≈ 4.99 µM) | < 0.5 | ED50 ([20]; P. aeruginosa BA, albino mice, s.c. 1, 3 and 5 hours after infection, survival after 4 days, read-out: ED50): > 2 mg/kg
Cc1cc(SCC2=C(C(=O)[O-])N3C(=O)[C@@H](NC(=O)/C(=N\OCc4nc(=O)c(O)c[nH]4)c4csc(N)n4)[C@H]3SC2)n2nc(COC(=O)c3ccc(O)c(O)c3)nc2n1.[Na+] [Example 6, (6R,7R)-7-[(Z)-2-(2-amino-4-thiazolyl)-2-[[(1,4-dihydro-5-hydroxy-4-oxo-2-pyrimidinyl)methoxy]imino]acetamido]-3-[[[2-[[(3,4-dihydroxybenzoyl)oxy]methyl]-5-methyl-s-triazolo[1,5-a]pyrimidin-7-yl]thio]methyl]-8-oxo-5-thia-1-azabicyclo[4.2.0]oct-2-ene-2-carboxylic acid sodium salt (1:1)] | – | – | – | – | – | – | – | – | – | – | 4 | – | – | – | – | – | – | – | – | MIC [1]; 902: < 0.1 µg/mL; MIC [2]; 25922: < 0.1 µg/mL; MIC [3]; 6538: 16 µg/mL; MIC ([4]; 799/61): < 0.1 µg/mL; MIC [5]; 69438: 0.12 µg/mL; MIC [6]; 1028: < 0.1 µg/mL; MIC ([7]; CF153): < 0.1 µg/mL; MIC ([8]; 908SSI): 4 µg/mL; MIC ([9]; 908R): 0.12 µg/mL; MIC ([10]; 799/WT): < 0.1 µg/mL; MIC ([12]; MK1184): < 0.1 µg/mL; MIC [13]; 27853: < 0.1 µg/mL; MIC [14]; 1082: 0.12 µg/mL; MIC [15]; 418: < 0.1 µg/mL; MIC [16]; 2117: 0.25 µg/mL; MIC [17]; 15: 2 µg/mL; MIC [18]: < 0.1 µg/mL; ED50 ([19]; Escherichia coli, 25922, sc): < 0.2 mg/kg; ED50 [20]: 0.3 mg/kg
CC(C)(O/N=C(\C(=O)N[C@@H]1C(=O)N2C(C(=O)O)=C(CSc3nc(-c4ccccc4)ncc3-c3ccc(O)c(O)c3)CS[C@H]12)c1csc(N)n1)C(=O)NNC(=O)c1ccc(O)c(O)c1 [Example 46, (6R,7R)-7-[(Z)-2-(2-amino-4-thiazolyl)-2-[[1-[3-(3,4-dihydroxybenzoyl)carbazoyl]-1-methylethoxy]imino]acetamido]-3-[[[5-(3,4-dihydroxyphenyl)-2-phenyl-4-pyrimidinyl]thio]methyl]-8-oxo-5-thia-1-azabicyclo[4.2.0]oct-2-ene-2-carboxylic acid] | 0.5 (≈ 0.547 µM) | 0.12 (≈ 0.131 µM) | > 32 | < 0.1 | 4 (≈ 4.38 µM) | 0.5 (≈ 0.547 µM) | 0.25 (≈ 0.274 µM) | 16 (≈ 17.5 µM) | 1 (≈ 1.09 µM) | 0.25 (≈ 0.274 µM) | 16 (≈ 17.5 µM) | 2 (≈ 2.19 µM) | 0.25 (≈ 0.274 µM) | 2 (≈ 2.19 µM) | 0.25 (≈ 0.274 µM) | 0.25 (≈ 0.274 µM) | 4 (≈ 4.38 µM) | 0.5 (≈ 0.547 µM) | < 0.5 | –

Source: patent US5438052A, “Cephalosporin derivatives” (Hoffmann-La Roche Inc., priority 1991, dated 1995)
